# Where no end group is shown, it is not given here.
# What was measured:
# [1] = system: liver tissue; assay: Toxicity in normal tissue (liver), histology; assay type: in vivo, mouse; conditions: intravenous injection, liver sections by the time
# Method: In order to evaluate the degree of toxicity to the liver tissue, liver tissue section was prepared as described in Example 8, and pathologically observed in a normal mice group not treated with the peptide, a tumor-formed group intravenously injected with 0.85% normal saline and groups intravenously injected with the cell-killing CKP fusion peptide by the time.
# [2] = system: splenocytes; assay: Normal cell necrosis activity in splenocytes by XTT method; assay type: cell-based, mouse; conditions: splenocytes from BALB/c mice, 5, 10 and 20 μM, after 15 min
# From the text: In order to test cell necrosis inducing activity of the cell-killing CKP fusion peptide (CTD7:CKP) selected in Example 3 in normal cells, primary peritoneal macrophages and splenocytes were isolated from BALB/c mice.
# In order to obtain splenocytes, complete RPMI media was put into a cell culture dish, male mouse spleen was isolated, and tissue thereof was crushed and centrifuged. Pellet was washed once with media and centrifuged again, and ACK lysis buffer (0.15 M NH4Cl, […], 0.01 M Na2EDTA, pH 7.2-7.4) was added thereto and centrifuged again. Then the pellet was cultured in 5% FBS-containing complete RPMI media for primary culture of the splenocytes, and the media was replaced with culture medium containing 5, 10 and 20 μM of the cell-killing CKP fusion peptide (CTD7:CKP), and after 15 min, cell necrosis inducing activity was confirmed by XTT method.
# [3] = Movement activity of mouse after I.V. injection; assay type: in vivo; conditions: 10-30 min after I.V. injection of 75 ul (1 mM) into BalB/C mouse (about 20 g)
# [4] = Hepatocyte toxicity: ALT and AST released to blood; assay type: in vivo, mouse; conditions: blood of treated groups by the time versus untreated control group
# Method: In order to confirm toxicity of the cell-killing CKP fusion peptide (CTD7:CKP), the amounts of alanine amino transferase (ALT) and aspartate amino transferase (AST) released to blood from hepatocytes of the damaged liver were measured and whether the hepatocytes was damaged or not was confirmed, so as to judge toxicity by the cell-killing CKP fusion peptide.
# [5] = system: CT-26 tumor; assay: In vivo screening of tumor regression activity, CT-26 tumor in BALB/C mice; set-up: key to In vivo Screening: NR: no regression (no decrease on the tumor volume); ND: not determined; conditions: for toxicity to the experimental animals: 100 ul (1 mM) intravenously 2-3 times (1 injection/day); for In vivo Screening: CT-26 tumor-bearing BALB/C mice, intravenous injection
# Method: In order to test tumor regression activity of the cell-killing CKP fusion peptides manufactured in Example 1, colon cell line, CT-26 (1.5×10^5 cells) was subcutaneously injected into dorsal skin of BALB/C mice of 6 weeks old to form tumor. After about 10 days, when the formed tumor volume reach to about 70±10 mm^3, the cancer cell specific CKP fusion peptide 100 ul (1 mM) was intravenously injected continuously 2-3 times (1 injection/day) into 3 mice, respectively, and after 10-13 days, change on the tumor tissue volume (length×wide^2×0.5) was observed.
# [6] = system: HeLa cells, cervical cancer cell line; assay: Cell-killing activity of CKP peptide variants in HeLa, crystal violet staining; assay type: cell-based, human; conditions: 0-40 μM, 24 hours, peptides linked to PTD RRRRRRRRG
# From the text: In order to examine whether variants, in which some amino acids of the CKP peptide (SEQ ID NO: 21; KLLNLISKLF) of the present invention are substituted, also have cell-killing activity or not, CKP2 (1 amino acid was substituted) (SEQ ID NO: 22; KALNLISKLF), CKP3 (2 amino acids were substituted) (SEQ ID NO: 23; KLAALISKLF), CKP4 (2 amino acids were substituted) (SEQ ID NO: 24; KLLNLIAALF) and CKP5 (3 amino acids were substituted) (SEQ ID NO: 25; KALNLIAALF), which are CKP peptide variants in which 1-3 of amino acid residues linked to the known protein transduction domain (PTD) having RRRRRRRRG (RQ) sequence are substituted, were synthesized by the procedure described in Example 1. Further, in order to investigate influence of substitution at the leucine's repeat in the CKP, the CKP peptide variants, CKP6 (2nd and 3rd L were substituted to A) (SEQ ID NO: 26; KAANLISKLF), CKP7 (5th L was substituted to A) (SEQ ID NO: 27; KLLNAISKLF) and CKP8 (9th L was substituted to A) (SEQ ID NO: 28; KLLNLISKAF) linked to the RRRRRRRRG (RQ) sequence of the protein transduction domain (PTD) were synthesized by the procedure described in Example 1. In order to test cell-killing activity of the variants, a cervical cancer cell line, HeLa cells were cultured, and the culture medium was replaced with culture medium containing 0, 1, 5, 10, 15, 20, 30 and 40 μM CKP peptide, respectively, followed by further culturing for 24 hours. Living cells attached to the bottom were stained with 100 μl 0.5% crystal violet solution for 10 min, and washed off with distilled water or tap water to remove dead cells floating on the culture medium and also to destain the crystal violet solution. Then, the cells were observed by photography after placing the culture vessel under a fluorescent lamp box as depicted in FIG. 14. The living cells attached to the bottom and stained with the crystal violet were appeared blue color. […] Accordingly, it was identified that the Leucine sequence is a region playing a critical role in cell-killing activity of the CKP.
# [7] = system: cells; conditions: in 10 minutes; cited from earlier work
sequence,measurement,setting,value
"RPARPARGGKLLNLISKLF [CTD7:CKP, RPARPARGGKLLNLISKLF]",damage of liver tissue (histology),[1],any significant damage was not observed
same,cell-killing activity in normal cells,[2],did not show significant cell-killing activity
same,Movement Activities,[3],Normal
same,ALT released to blood (liver damage index),[4],no difference
same,AST released to blood (liver damage index),[4],no difference
same,toxicity to the experimental animals,[5],no toxicity
KAANLISKLF [CKP6],cell-killing activity compared with the CKP peptide,[6],much decreased cell-killing activity
KALNLISKLF [CKP2],cell-killing activity compared with the CKP peptide,[6],slightly decreased cell-killing activity
"KLLNLISKLFGGCRGDK [CTD19:CKP, KLLNLISKLFGGCRGDK]",Movement Activities,[3],Normal
CRGDKGPDCKLLNLISKLF (Cell killing fusion peptide) [CTD15:CKP],Movement Activities,[3],Normal
"KLLNLISKLFGGRLLRLLR [CTD6:CKP, KLLNLISKLFGGRLLRLLR]",Movement Activities,[3],Normal
same,toxicity to the experimental animals,[5],toxicity removing the injected tail by necrosis
KLLNLISKLFCRGDKRLYDC (Cell killing fusion peptide) [CTD17:CKP],Movement Activities,[3],Slow
same,toxicity to the experimental animals,[5],toxicity removing the injected tail by necrosis
same,In vivo Screening,[5],Toxic
CNGRCGGKLLNLISKLF (Cell killing fusion peptide) [CTD1:CKP],Movement Activities,[3],Slow
same,In vivo Screening,[5],NR
KLLNLISKLFCGRDKRLYDC (Cell killing fusion peptide) [CTD14:CKP],Movement Activities,[3],Dead
same,toxicity to the experimental animals,[5],dead
same,In vivo Screening,[5],Dead
KLLNLIAALF [CKP4],cell-killing activity compared with the CKP peptide,[6],better cell-killing activity
KLLNLISKLFCGRDKGPDC (Cell killing fusion peptide) [CTD13:CKP],Movement Activities,[3],Normal
"RLLRLLRGGKLLNLISKLF [CTD5:CKP, RLLRLLRGGKLLNLISKLF]",Movement Activities,[3],Slow
same,toxicity to the experimental animals,[5],toxicity removing the injected tail by necrosis
"KLLNLISKLFGGCGKRK [CTD3:CKP, KLLNLISKLFGGCGKRK]",Movement Activities,[3],Normal
KLLNLISKAF [CKP8],cell-killing activity compared with the CKP peptide,[6],much decreased cell-killing activity
WDLAWMFRLPVGKLLNLISKLF [CTD11:CKP],Movement Activities,[3],Normal
KLLNAISKLF [CKP7],cell-killing activity compared with the CKP peptide,[6],much decreased cell-killing activity
KLAALISKLF [CKP3],cell-killing activity compared with the CKP peptide,[6],slightly decreased cell-killing activity
KLLNLISKLFCRGDKGPDC (Cell killing fusion peptide) [CTD16:CKP],Movement Activities,[3],Slow
KLLNLISKLFGGLGDRGDR (Cell killing fusion peptide) [CTD10:CKP],In vivo Screening,[5],NR
CGRDKGPDCKLLNLISKLF (Cell killing fusion peptide) [CTD12:CKP],Movement Activities,[3],Normal
"CRGDKGGKLLNLISKLF [CTD18:CKP, CRGDKGGKLLNLISKLF]",Movement Activities,[3],Slow
"CGKRKGGKLLNLISKLF [CTD2:CKP, CGKRKGGKLLNLISKLF]",Movement Activities,[3],Normal
KLLNLISKLF (Cell Killing Peptide) [MTD],cells killed (cell necrosis effect),[7],≥ 80%
"KLLNLISKLFGGRPARPAR [CTD8:CKP, KLLNLISKLFGGRPARPAR]",Movement Activities,[3],Slow
"WIFPWIQLKLLNLISKLF [CTD4:CKP, WIFPWIQLKLLNLISKLF]",Movement Activities,[3],Slow
same,toxicity to the experimental animals,[5],toxicity removing the injected tail by necrosis
KALNLIAALF [CKP5],cell-killing activity compared with the CKP peptide,[6],slightly decreased cell-killing activity

# — patent US20140343249A1, “CELL KILLING FUSION PEPTIDE EXHIBITING TUMOR CELL-SPECIFIC NECROSIS INDUCTION AND TUMOR REGRESSION” (INDUSTRY-ACADEMIC COOPERATION FOUNDATION, CHOSUN UNIVERSITY, priority 2011, published 2014)
